Results taken from the NIST ThermoML archive (doi:10.1021/acs.jced.6b00040).
Numbers after ± are expanded uncertainties. Each block holds one molecule with its values, some of them ahead of it.

Conditions: Liquid, Ebulliometric method (Recirculating still)

vapor or sublimation pressure (361.45 K): 101.3 ± 0.8 kPa
SMILES: CC(=O)OC(C)C [1-methylethyl ethanoate]

vapor or sublimation pressure (463.38 K): 101.3 ± 0.8 kPa
SMILES: C[S+](C)[O-] [dimethyl sulfoxide]

vapor or sublimation pressure (355.33 K): 101.3 ± 0.8 kPa
SMILES: CC(C)O [propan-2-ol]
